Experimental findings from US20250195661A1, “NIR-responsive stem cell-derived inflammation attenuating complex and use thereof” (priority 2023, published 2025) are described below.

The series in a line: Hydrodynamic size and potential analysis. The format is physicochemical. Here is the method: The hydrodynamic size distribution and electrical potential of nanomedicines including AuS-TA were evaluated using a Litesizer 500 (Anton Paar) according to the manufacturer's instructions. AuS and TA non-covalently attached to AuS were quantified by determining absorbance using UV-vis spectrophotometry (Biochrom). […] Therefore, the TA amount of Edu-MSCs-AuS-TA was measured based on the AuS-TA ratio of AuS and TA. The concentration of each solution was extrapolated using the linear standard curve for AuS and TA. The morphology, crystallinity, and EDS mapping of AuS-PEG and AuS-TA complexes were analyzed using TEM (F30, Tecnai, USA) and STEM (JEM-ARM200F, JEOL, Japan).

For the compound `C[C@]12C=CC(=O)C=C1CC[C@H]1[C@@H]3C[C@@H](O)[C@](O)(C(=O)CO)[C@@]3(C)C[C@H](O)[C@@]12F` [TA, triamcinolone], the hydrodynamic size amounted to 77 nm and the surface charge result was “close to neutral”.
